Consider 38 molecules from patent US8822446B2, “Pyrrolopyridine inhibitors of kinases” (AbbVie Inc., priority 2010, dated 2014).

T1 sequence (O00311 whole entry): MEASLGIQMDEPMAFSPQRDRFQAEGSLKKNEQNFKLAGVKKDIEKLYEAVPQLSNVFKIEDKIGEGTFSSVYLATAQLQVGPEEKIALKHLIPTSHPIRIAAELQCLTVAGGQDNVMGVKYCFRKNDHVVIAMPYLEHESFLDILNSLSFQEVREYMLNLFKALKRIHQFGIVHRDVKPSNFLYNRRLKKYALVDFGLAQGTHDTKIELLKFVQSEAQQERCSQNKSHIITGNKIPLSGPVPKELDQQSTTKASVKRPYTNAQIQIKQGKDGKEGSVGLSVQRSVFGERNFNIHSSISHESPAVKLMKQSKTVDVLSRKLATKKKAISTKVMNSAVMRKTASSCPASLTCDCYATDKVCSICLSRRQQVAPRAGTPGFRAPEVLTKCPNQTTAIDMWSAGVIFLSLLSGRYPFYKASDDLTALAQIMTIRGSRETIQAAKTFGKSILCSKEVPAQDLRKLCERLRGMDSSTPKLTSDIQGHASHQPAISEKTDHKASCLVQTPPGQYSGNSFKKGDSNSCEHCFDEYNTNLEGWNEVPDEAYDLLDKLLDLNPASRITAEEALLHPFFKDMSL
T1 sequence (Q9UBU7 whole entry partner): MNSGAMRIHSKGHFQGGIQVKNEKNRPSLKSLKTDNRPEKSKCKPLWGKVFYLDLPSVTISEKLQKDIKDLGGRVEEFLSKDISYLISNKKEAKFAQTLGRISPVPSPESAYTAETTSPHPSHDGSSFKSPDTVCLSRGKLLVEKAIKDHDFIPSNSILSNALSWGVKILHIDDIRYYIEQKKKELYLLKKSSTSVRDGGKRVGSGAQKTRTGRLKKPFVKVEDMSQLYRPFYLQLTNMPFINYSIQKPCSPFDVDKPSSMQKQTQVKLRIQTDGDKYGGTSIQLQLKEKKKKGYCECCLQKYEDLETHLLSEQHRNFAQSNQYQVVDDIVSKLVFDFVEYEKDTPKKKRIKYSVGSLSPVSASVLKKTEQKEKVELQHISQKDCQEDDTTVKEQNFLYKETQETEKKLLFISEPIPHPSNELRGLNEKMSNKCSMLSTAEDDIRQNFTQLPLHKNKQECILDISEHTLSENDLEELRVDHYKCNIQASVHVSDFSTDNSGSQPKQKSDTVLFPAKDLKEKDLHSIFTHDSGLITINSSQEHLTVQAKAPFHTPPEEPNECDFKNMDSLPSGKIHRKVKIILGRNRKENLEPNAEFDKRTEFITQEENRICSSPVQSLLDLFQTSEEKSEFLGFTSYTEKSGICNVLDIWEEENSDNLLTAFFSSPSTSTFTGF

The test has as its target T1, Cdc7 (BEV coexpressed huCDC7/DBF4) (Homo sapiens, UniProt O00311).
T1 construct: made in house; host or cells: baculovirus expression vector (BEV) co-expression
As to the kind of experiment: Cdc7 enzyme inhibition assay ([33P]-ATP, biotinylated peptide substrate, FlashPlate). The class given is biochemical. Conditions: Ki generated from IC50 assuming ATP-competitive inhibition; 1 μM ATP, apparent ATP Km 0.7 μM; 1 hr reaction. On the procedure: This example describes the assays that may be used to identify compounds having kinase activity.
Cdc7 (BEV coexpressed huCDC7/DBF4) is prepared internally. Cdc7 assays are conducted as follows with final concentrations as listed. In 384-well v-bottom polypropylene plates, 6 μL compound (2% DMSO), is mixed with 6 μL of Cdc7 (2 ug/mL), and Jerini peptide substrate A-A11 (biotin-C6linker-[…]) (2 μM), followed by immediate initiation with 6 μL […] (1 μM, 20 mCi/μmol) using a reaction buffer comprising 25 mM HEPES, pH 7.5, 1 mM DTT, 10 mM MgCl2, 100 μM, Na3VO4, 0.075 mg/ml Triton X-100. Reactions are quenched after 1 hr by the addition of 90 μL stop buffer (50 mM EDTA, 2M NaCl).
Table 1 depicts enzyme inhibition data (Ki) for exemplary compounds.
For the molecule `O=c1cc(-c2c[nH]c3ncccc23)nc(N2CCOCC2)[nH]1` [Example 24, 2-(morpholin-4-yl)-6-(1H-pyrrolo[2,3-b]pyridin-3-yl)pyrimidin-4(3H)-one], the Ki is below 10 nM.
The same measure for `N[C@H]1CC[C@H](Nc2cc(-c3c[nH]c4ncccc34)cc(=O)[nH]2)CC1` [Example 56, 6-[(trans-4-aminocyclohexyl)amino]-4-(1H-pyrrolo[2,3-b]pyridin-3-yl)pyridin-2(1H)-one]: below 10 nM; for `O=c1cc(-c2c[nH]c3ncccc23)nc(NC2CCOCC2)[nH]1` [Example 9, 6-(1H-pyrrolo[2,3-b]pyridin-3-yl)-2-(tetrahydro-2H-pyran-4-ylamino)pyrimidin-4(3H)-one]: below 10 nM; for `O=c1cc(-c2c[nH]c3ncccc23)cc(-c2ccccc2)[nH]1` [Example 34, 6-phenyl-4-(1H-pyrrolo[2,3-b]pyridin-3-yl)pyridin-2(1H)-one]: below 10 nM.
As for `COc1cccc(-c2cc(-c3c[nH]c4ncccc34)cc(=O)[nH]2)c1OC` [Example 43, 6-(2,3-dimethoxyphenyl)-4-(1H-pyrrolo[2,3-b]pyridin-3-yl)pyridin-2(1H)-one], the Ki was below 10 nM.
The same measure for `COC1CCN(c2nc(-c3c[nH]c4ncccc34)cc(=O)[nH]2)CC1` [Example 27, 2-(4-methoxypiperidin-1-yl)-6-(1H-pyrrolo[2,3-b]pyridin-3-yl)pyrimidin-4(3H)-one]: below 10 nM; for `Cc1cccc(-c2cc(-c3c[nH]c4ncccc34)cc(=O)[nH]2)c1C` [Example 37, 6-(2,3-dimethylphenyl)-4-(1H-pyrrolo[2,3-b]pyridin-3-yl)pyridin-2(1H)-one]: below 10 nM; for `O=c1cc(-c2c[nH]c3ncccc23)cc(-c2ccc3ccccc3c2)[nH]1` [Example 41, 6-(2-naphthyl)-4-(1H-pyrrolo[2,3-b]pyridin-3-yl)pyridin-2(1H)-one]: below 10 nM.
As for `C[C@H](Nc1nc(-c2c[nH]c3ncccc23)cc(=O)[nH]1)c1ccccc1` [Example 8, 2-{[(1S)-1-phenylethyl]amino}-6-(1H-pyrrolo[2,3-b]pyridin-3-yl)pyrimidin-4(3H)-one], the figure is below 10 nM.
As for `O=c1cc(-c2c[nH]c3ncccc23)cc(-c2cn[nH]c2)[nH]1` [Example 52, 6-(1H-pyrazol-4-yl)-4-(1H-pyrrolo[2,3-b]pyridin-3-yl)pyridin-2(1H)-one], the figure is below 10 nM; as for `O=c1cc(-c2c[nH]c3ncccc23)cc(-c2ccc3c(c2)OCO3)[nH]1` [Example 39, 6-(1,3-benzodioxol-5-yl)-4-(1H-pyrrolo[2,3-b]pyridin-3-yl)pyridin-2(1H)-one], below 10 nM; as for `Cc1c(Cl)cccc1-c1cc(-c2c[nH]c3ncccc23)cc(=O)[nH]1` [Example 48, 6-(3-chloro-2-methylphenyl)-4-(1H-pyrrolo[2,3-b]pyridin-3-yl)pyridin-2(1H)-one], below 10 nM.
For the molecule `COCCNc1nc(-c2c[nH]c3ncccc23)cc(=O)[nH]1` [Example 18, 2-[(2-methoxyethyl)amino]-6-(1H-pyrrolo[2,3-b]pyridin-3-yl)pyrimidin-4(3H)-one], the Ki is below 10 nM.
For the molecule `O=c1cc(-c2c[nH]c3ncccc23)cc(-c2cccc(Cl)c2)[nH]1` [Example 42, 6-(3-chlorophenyl)-4-(1H-pyrrolo[2,3-b]pyridin-3-yl)pyridin-2(1H)-one], the Ki was below 10 nM.
The same measure for `O=c1cc(-c2c[nH]c3ncccc23)cc(-c2ccc(Cl)cc2F)[nH]1` [Example 45, 6-(4-chloro-2-fluorophenyl)-4-(1H-pyrrolo[2,3-b]pyridin-3-yl)pyridin-2(1H)-one]: below 10 nM; for `O=c1cc(-c2c[nH]c3ncccc23)nc(NC2CCCCC2O)[nH]1` (centres unmarked) [Example 28, 2-[(2-hydroxycyclohexyl)amino]-6-(1H-pyrrolo[2,3-b]pyridin-3-yl)pyrimidin-4(3H)-one]: below 10 nM; for `O=c1cc(-c2c[nH]c3ncccc23)nc(NCCO)[nH]1` [Example 19, 2-[(2-hydroxyethyl)amino]-6-(1H-pyrrolo[2,3-b]pyridin-3-yl)pyrimidin-4(3H)-one]: below 10 nM.
The same measure for `CN1CCC(Nc2nc(-c3c[nH]c4ncccc34)cc(=O)[nH]2)CC1` [Example 29, 2-[(1-methylpiperidin-4-yl)amino]-6-(1H-pyrrolo[2,3-b]pyridin-3-yl)pyrimidin-4(3H)-one]: below 10 nM; for `Cc1cccc(-c2nc(-c3c[nH]c4ncccc34)cc(=O)[nH]2)c1C` [Example 62, 2-(2,3-dimethylphenyl)-6-(1H-pyrrolo[2,3-b]pyridin-3-yl)pyrimidin-4(3H)-one]: below 10 nM; for `O=c1cc(-c2c[nH]c3ncccc23)nc(NCc2ccccc2C(F)(F)F)[nH]1` [Example 20, 6-(1H-pyrrolo[2,3-b]pyridin-3-yl)-2-{[2-(trifluoromethyl)benzyl]amino}pyrimidin-4(3H)-one]: below 10 nM.
The same measure for `O=c1cc(-c2c[nH]c3ncccc23)nc(Nc2ccccc2)[nH]1` [Example 3, 2-anilino-6-(1H-pyrrolo[2,3-b]pyridin-3-yl)pyrimidin-4(3H)-one]: below 10 nM.
As for `O=C(N[C@H]1CC[C@H](Nc2cc(-c3c[nH]c4ncccc34)cc(=O)[nH]2)CC1)C1CC1` [Example 58, N-(trans-4-{[6-oxo-4-(1H-pyrrolo[2,3-b]pyridin-3-yl)-1,6-dihydropyridin-2-yl]amino}cyclohexyl)cyclopropanecarboxamide], the Ki is below 10 nM.
`CNCCNc1nc(-c2c[nH]c3ncccc23)cc(=O)[nH]1` [Example 16, 2-{[2-(methylamino)ethyl]amino}-6-(1H-pyrrolo[2,3-b]pyridin-3-yl)pyrimidin-4(3H)-one]: the Ki is below 10 nM.
The same measure for `Cc1ccccc1-c1nc(-c2c[nH]c3ncccc23)cc(=O)[nH]1` [Example 33, 2-(2-methylphenyl)-6-(1H-pyrrolo[2,3-b]pyridin-3-yl)pyrimidin-4(3H)-one]: below 10 nM; for `COc1ncccc1-c1cc(-c2c[nH]c3ncccc23)cc(=O)[nH]1` [Example 47, 2′-methoxy-4-(1H-pyrrolo[2,3-b]pyridin-3-yl)-2,3′-bipyridin-6(1H)-one]: below 10 nM; for `O=c1cc(-c2c[nH]c3ncccc23)nc(NCCCn2ccnc2)[nH]1` [Example 30, 2-{[3-(1H-imidazol-1-yl)propyl]amino}-6-(1H-pyrrolo[2,3-b]pyridin-3-yl)pyrimidin-4(3H)-one]: below 10 nM.
As for `O=c1cc(-c2c[nH]c3ncccc23)nc(NCC2CCCO2)[nH]1` (centres unmarked) [Example 10, 6-(1H-pyrrolo[2,3-b]pyridin-3-yl)-2-[(tetrahydrofuran-2-ylmethyl)amino]pyrimidin-4(3H)-one], the figure is below 10 nM.
As for `O=C(O)C1CCN(c2nc(-c3c[nH]c4ncccc34)cc(=O)[nH]2)CC1` [Example 25, 1-[6-oxo-4-(1H-pyrrolo[2,3-b]pyridin-3-yl)-1,6-dihydropyrimidin-2-yl]piperidine-4-carboxylic acid], the figure is below 10 nM; as for `O=c1cc(-c2c[nH]c3ncccc23)nc(NCc2cc(F)cc(F)c2)[nH]1` [Example 5, 2-[(3,5-difluorobenzyl)amino]-6-(1H-pyrrolo[2,3-b]pyridin-3-yl)pyrimidin-4(3H)-one], below 10 nM; as for `O=c1cc(-c2c[nH]c3ncccc23)cc(-c2cccc(C(F)(F)F)c2)[nH]1` [Example 36, 4-(1H-pyrrolo[2,3-b]pyridin-3-yl)-6-[3-(trifluoromethyl)phenyl]pyridin-2(1H)-one], below 10 nM.
In the case of `NCCCOc1cccc(CNc2nc(-c3c[nH]c4ncccc34)cc(=O)[nH]2)c1` [Example 63, 2-{[3-(3-aminopropoxy)benzyl]amino}-6-(1H-pyrrolo[2,3-b]pyridin-3-yl)pyrimidin-4(3H)-one], the Ki is below 10 nM.
The same measure for `N[C@H]1CC[C@H](Nc2nc(-c3c[nH]c4ncccc34)cc(=O)[nH]2)CC1` [Example 4, 2-[(trans-4-aminocyclohexyl)amino]-6-(1H-pyrrolo[2,3-b]pyridin-3-yl)pyrimidin-4(3H)-one]: below 10 nM; for `Cc1ccccc1-c1cc(-c2c[nH]c3ncccc23)cc(=O)[nH]1` [Example 38, 6-(2-methylphenyl)-4-(1H-pyrrolo[2,3-b]pyridin-3-yl)pyridin-2(1H)-one]: below 10 nM.
The same measure for `Cc1ccc(-c2nc(-c3c[nH]c4ncccc34)cc(=O)[nH]2)cc1` [Example 60, 2-(4-methylphenyl)-6-(1H-pyrrolo[2,3-b]pyridin-3-yl)pyrimidin-4(3H)-one]: below 10 nM.
On to `O=c1cc(-c2c[nH]c3ncccc23)cc(-c2ccsc2)[nH]1` [Example 40, 4-(1H-pyrrolo[2,3-b]pyridin-3-yl)-6-(3-thienyl)pyridin-2(1H)-one], for which the Ki was below 10 nM.
As for `O=c1cc(-c2c[nH]c3ncccc23)nc(NC2CCNCC2)[nH]1` [Example 6, 2-(piperidin-4-ylamino)-6-(1H-pyrrolo[2,3-b]pyridin-3-yl)pyrimidin-4(3H)-one], the figure is below 10 nM.
The same measure for `CS(=O)(=O)c1cccc(-c2cc(-c3c[nH]c4ncccc34)cc(=O)[nH]2)c1` [Example 51, 6-[3-(methylsulfonyl)phenyl]-4-(1H-pyrrolo[2,3-b]pyridin-3-yl)pyridin-2(1H)-one]: below 10 nM.
As for `COCCN(CCOC)c1nc(-c2c[nH]c3ncccc23)cc(=O)[nH]1` [Example 17, 2-[bis(2-methoxyethyl)amino]-6-(1H-pyrrolo[2,3-b]pyridin-3-yl)pyrimidin-4(3H)-one], the figure is below 10 nM.
